Source: ChEMBL document CHEMBL1137226, “Structure modifications of 6-aminoquinolones with potent anti-HIV activity” (J Med Chem, 2004)
In brackets after ≈: the same amount, converted by molar mass.

How the values were obtained:
MT4 [1] = assay: Concentration required for protection of MT-4 cells from HIV-2 (ROD) induced cytopathogenicity in MTT assay; assay type: functional, cell-based; conditions: Homo sapiens
MT4 [2] = assay: Maximum protection (%) of MT-4 cells from HIV-1 (IIIB) induced cytopathogenicity; value ranges from 7-30%; assay type: functional, Homo sapiens
MT4 [3] = assay: Maximum protection (%) of MT-4 cells from HIV-2 (ROD) induced cytopathogenicity; value ranges from 17-31%; assay type: functional, Homo sapiens
MT4 [4] = assay: Concentration required for protection of MT-4 cells from HIV-1 (IIIB) induced cytopathogenicity in MTT assay; assay type: functional, cell-based; conditions: Homo sapiens
MT4 [5] = assay: Concentration of compound that reduces the viability of mock-infected MT-4 cells by 50%; assay type: functional; conditions: Homo sapiens
MT4 [6] = assay: Selectivity index towards HIV-2 (ROD) in MT-4 cells; assay type: functional, Homo sapiens
MT4 [7] = assay: Selectivity index towards HIV-1 (IIIB) in MT-4 cells; assay type: functional, Homo sapiens
MT4 [8] = assay: Maximum protection (%) of MT-4 cells from HIV-1 (IIIB) induced cytopathogenicity; value ranges from 16-21%; assay type: functional, Homo sapiens
MT4 [9] = assay: Maximum protection (%) of MT-4 cells from HIV-2 (ROD) induced cytopathogenicity; value ranges from 17-27%; assay type: functional, Homo sapiens
MT4 [10] = assay: Maximum protection (%) of MT-4 cells from HIV-2 (ROD) induced cytopathogenicity; value ranges from 29-63%; assay type: functional, Homo sapiens
MT4 [11] = assay: Maximum protection (%) of MT-4 cells from HIV-1 (IIIB) induced cytopathogenicity; value ranges from 29-40%; assay type: functional, Homo sapiens
CCRF-CEM [12] = assay: Concentration of compound that reduces the viability of mock-infected CEM cells by 50%; assay type: functional; conditions: Homo sapiens
[13] = Selectivity index towards HIV-1 (IIIB) in peripheral blood mononuclear cells; assay type: functional, Homo sapiens
CCRF-CEM [14] = assay: Concentration of compound required for protection of CEM cells from HIV-2 (ROD) induced cytopathogenicity; assay type: functional, cell-based; conditions: Homo sapiens
CCRF-CEM [15] = assay: Selectivity index towards HIV-2 (ROD) in CEM cells; assay type: functional, Homo sapiens
[16] = Concentration of compound that reduces the viability of mock-infected peripheral blood mononuclear cells by 50%; assay type: functional; conditions: Homo sapiens
CCRF-CEM [17] = assay: Selectivity index towards HIV-1 (IIIB) in CEM cells; assay type: functional, Homo sapiens
MT4 [18] = assay: Maximum protection (%) of MT-4 cells from HIV-2 (ROD) induced cytopathogenicity; value ranges from 60-64%; assay type: functional, Homo sapiens
[19] = Concentration of compound required for reduction of p24 production in HIV-1 (IIIB) infected peripheral blood mononuclear cells; assay type: functional; conditions: Homo sapiens
CCRF-CEM [20] = assay: Concentration of compound required for protection of CEM cells from HIV-1 (IIIB) induced cytopathogenicity; assay type: functional, cell-based; conditions: Homo sapiens
MT4 [21] = assay: Maximum protection (%) of MT-4 cells from HIV-1 (IIIB) induced cytopathogenicity; value ranges from 35-59%; assay type: functional, Homo sapiens
MT4 [22] = assay: Maximum protection (%) of MT-4 cells from HIV-1 (IIIB) induced cytopathogenicity; value ranges from 57-110%; assay type: functional, Homo sapiens
MT4 [23] = assay: Maximum protection (%) of MT-4 cells from HIV-2 (ROD) induced cytopathogenicity; value ranges from 43-78%; assay type: functional, Homo sapiens
MT4 [24] = assay: Maximum protection (%) of MT-4 cells from HIV-1 (IIIB) induced cytopathogenicity; value ranges from 11-24%; assay type: functional, Homo sapiens
MT4 [25] = assay: Maximum protection (%) of MT-4 cells from HIV-2 (ROD) induced cytopathogenicity; value ranges from 26-27%; assay type: functional, Homo sapiens
MT4 [26] = assay: Maximum protection (%) of MT-4 cells from HIV-2 (ROD) induced cytopathogenicity; assay type: functional, Homo sapiens
MT4 [27] = assay: Maximum protection (%) of MT-4 cells from HIV-1 (IIIB) induced cytopathogenicity; value ranges from 0-1%; assay type: functional, Homo sapiens
MT4 [28] = assay: Maximum protection (%) of MT-4 cells from HIV-1 (IIIB) induced cytopathogenicity; value ranges from 4-8%; assay type: functional, Homo sapiens
MT4 [29] = assay: Maximum protection (%) of MT-4 cells from HIV-1 (IIIB) induced cytopathogenicity; value ranges from 9-24%; assay type: functional, Homo sapiens
MT4 [30] = assay: Maximum protection (%) of MT-4 cells from HIV-1 (IIIB) induced cytopathogenicity; value ranges from 25-30%; assay type: functional, Homo sapiens
MT4 [31] = assay: Maximum protection (%) of MT-4 cells from HIV-2 (ROD) induced cytopathogenicity; value ranges from 51-81%; assay type: functional, Homo sapiens
MT4 [32] = assay: Maximum protection (%) of MT-4 cells from HIV-2 (ROD) induced cytopathogenicity; value ranges from 51-55%; assay type: functional, Homo sapiens
MT4 [33] = assay: Maximum protection (%) of MT-4 cells from HIV-1 (IIIB) induced cytopathogenicity; value ranges from 60-91%; assay type: functional, Homo sapiens
MT4 [34] = assay: Maximum protection (%) of MT-4 cells from HIV-1 (IIIB) induced cytopathogenicity; value ranges from 5-9%; assay type: functional, Homo sapiens
MT4 [35] = assay: Maximum protection (%) of MT-4 cells from HIV-1 (IIIB) induced cytopathogenicity; value ranges from 65-86%; assay type: functional, Homo sapiens
MT4 [36] = assay: Maximum protection (%) of MT-4 cells from HIV-2 (ROD) induced cytopathogenicity; value ranges from 15-21%; assay type: functional, Homo sapiens
MT4 [37] = assay: Maximum protection (%) of MT-4 cells from HIV-2 (ROD) induced cytopathogenicity; value ranges from 58-83%; assay type: functional, Homo sapiens
MT4 [38] = assay: Maximum protection (%) of MT-4 cells from HIV-1 (IIIB) induced cytopathogenicity; value ranges from 55-118%; assay type: functional, Homo sapiens
MT4 [39] = assay: Maximum protection (%) of MT-4 cells from HIV-1 (IIIB) induced cytopathogenicity; value ranges from 10-27%; assay type: functional, Homo sapiens

| Compound | EC50 (MT4 [1]) [µg/mL] | EC50 (MT4 [4]) [µg/mL] | CC50 (MT4 [5]) [µg/mL] | Selectivity index (MT4 [6]) | Selectivity index (MT4 [7]) | CC50 (CCRF-CEM [12]) [µg/mL] | Selectivity index [13] | EC50 (CCRF-CEM [14]) [µg/mL] | Selectivity index (CCRF-CEM [15]) | CC50 [16] [µg/mL] | Selectivity index (CCRF-CEM [17]) | EC50 [19] [µg/mL] | EC50 (CCRF-CEM [20]) [µg/mL] | Protection (MT4 [26]) [%] | other results |
| --- | --- | --- | --- | --- | --- | --- | --- | --- | --- | --- | --- | --- | --- | --- | --- |
| Cn1cc(C(=O)O)c(=O)c2cc(N)c(N3CCN(c4ccccc4F)CC3)cc21 | > 125 | > 125 | > 125 | – | – | – | – | – | – | – | – | – | – | – | Protection (MT4 [2]): <30%; Protection (MT4 [3]): <31% |
| COc1ccccc1N1CCN(c2cc3c(cc2N)c(=O)c(C(=O)O)cn3C)CC1 | > 7.45 | > 7.45 | 7.45 (≈ 18.2 µM) | <1 | <1 | – | – | – | – | – | – | – | – | – | Protection (MT4 [8]): <21%; Protection (MT4 [9]): <27% |
| Cc1nnc(N2CCN(c3cc4c(cc3N)c(=O)c(C(=O)O)cn4C)CC2)s1 | ≥ 10.3 | > 125 | > 125 | <=12.1 | <1 | – | – | – | – | – | – | – | – | – | Protection (MT4 [10]): <63%; Protection (MT4 [11]): <40% |
| Cn1cc(C(=O)O)c(=O)c2cc(N)c(N3CCN(c4ccccn4)CC3)cc21 | 0.19 (≈ 0.501 µM) | ≥ 0.29 | 0.71 (≈ 1.87 µM) | 3.7 | <=2.4 | > 100 | 28 | 0.06 (≈ 0.158 µM) | >1667 | 1.45 (≈ 3.82 µM) | >3333 | 0.05 (≈ 0.132 µM) | 0.03 (≈ 0.0791 µM) | – | Protection (MT4 [18]): <64%; Protection (MT4 [21]): <59% |
| Cn1cc(C(=O)O)c(=O)c2cc(N)c(N3CCN(c4cccc(C(F)(F)F)c4)CC3)cc21 | ≥ 0.31 | 0.31 (≈ 0.694 µM) | 2.18 (≈ 4.88 µM) | <=7 | 7 | 8 (≈ 17.9 µM) | 28 | 0.2 (≈ 0.448 µM) | 40 | 1.55 (≈ 3.47 µM) | 89 | 0.05 (≈ 0.112 µM) | 0.09 (≈ 0.202 µM) | – | Protection (MT4 [22]): <110%; Protection (MT4 [23]): <78% |
| CCn1cc(C(=O)O)c(=O)c2cc(N)c(N3CCN(c4ccccn4)CC3)cc21 | > 2.2 | > 2.2 | 2.2 (≈ 5.59 µM) | <1 | <1 | – | – | – | – | – | – | – | – | – | Protection (MT4 [24]): <24%; Protection (MT4 [25]): <27% |
| Cn1cc(C(=O)O)c(=O)c2cc(N)c(N3CCN(c4nc5ccccc5[nH]4)CC3)cc21 | > 125 | > 125 | > 125 | – | – | – | – | – | – | – | – | – | – | 0 | Protection (MT4 [27]): <1% |
| Cn1cc(C(=O)O)c(=O)c2cc(N)c(N3CCN(c4nc5cc(Cl)ccc5s4)CC3)cc21 | > 0.0021 | > 0.0021 | 0.0021 (≈ 0.00447 µM) | <1 | <1 | – | – | – | – | – | – | – | – | 3 | Protection (MT4 [28]): <8% |
| COc1ccccc1N1CCN(c2cc3c(cc2N)c(=O)c(C(=O)O)cn3C2CC2)CC1 | > 10.3 | > 10.3 | 10.3 (≈ 23.8 µM) | <1 | <1 | – | – | – | – | – | – | – | – | 10 | Protection (MT4 [29]): <24% |
| Cn1cc(C(=O)O)c(=O)c2cc(N)c(N3CCN(c4nc5ccccc5s4)CC3)cc21 | 0.0011 (≈ 0.00253 µM) | > 0.0054 | 0.0054 (≈ 0.0124 µM) | 5.1 | <1 | – | – | – | – | – | – | – | – | – | Protection (MT4 [30]): <30%; Protection (MT4 [31]): <81% |
| Cn1cc(C(=O)O)c(=O)c2cc(N)c(N3CCN(c4cnccn4)CC3)cc21 | 1.54 (≈ 4.05 µM) | 0.7 (≈ 1.84 µM) | 3.98 (≈ 10.5 µM) | 2.6 | 5.7 | > 100 | 81 | 0.2 (≈ 0.526 µM) | >500 | 3.65 (≈ 9.59 µM) | >1250 | 0.04 (≈ 0.105 µM) | 0.08 (≈ 0.21 µM) | – | Protection (MT4 [32]): <55%; Protection (MT4 [33]): <91% |
| CC(=O)c1ccc(N2CCN(c3cc4c(cc3N)c(=O)c(C(=O)O)cn4C)CC2)cc1 | > 0.15 | > 0.15 | 0.15 (≈ 0.357 µM) | <1 | <1 | – | – | – | – | – | – | – | – | 13 | Protection (MT4 [34]): <9% |
| Cn1cc(C(=O)O)c(=O)c2cc(N)c(N3CCN(c4nc5ccccc5o4)CC3)cc21 | 0.0087 (≈ 0.0207 µM) | 0.01 (≈ 0.0238 µM) | 0.09 (≈ 0.215 µM) | 11.3 | 6.5 | 2.2 (≈ 5.25 µM) | 26 | 0.02 (≈ 0.0477 µM) | 110 | 1.12 (≈ 2.67 µM) | 220 | 0.04 (≈ 0.0954 µM) | 0.01 (≈ 0.0238 µM) | – | Protection (MT4 [35]): <86%; Protection (MT4 [36]): <21% |
| Cn1cc(C(=O)O)c(=O)c2cc(N)c(N3CCN(c4nccs4)CC3)cc21 | 0.08 (≈ 0.208 µM) | 0.13 (≈ 0.337 µM) | 1.17 (≈ 3.04 µM) | 14.6 | 9 | ≥ 100 | 41 | 0.08 (≈ 0.208 µM) | >=1250 | 1.3 (≈ 3.37 µM) | >=1667 | 0.03 (≈ 0.0778 µM) | 0.06 (≈ 0.156 µM) | – | Protection (MT4 [37]): <83%; Protection (MT4 [38]): <118% |
| Cn1cc(C(=O)O)c(=O)c2cc(N)c(N3CCN(C4=Nc5ccccc5SC4)CC3)cc21 | > 2.14 | > 2.14 | 2.14 (≈ 4.76 µM) | <1 | <1 | – | – | – | – | – | – | – | – | 15 | Protection (MT4 [39]): <27% |
